Our source for the EC50, IC50 and Kd values is patent US20240139185A1, “COMPOUNDS THAT PARTICIPATE IN COOPERATIVE BINDING AND USES THEREOF” (Revolution Medicines, Inc., priority 2018, published 2024).

Experiment [1] deals with T1, BRAF-GTP-KRAS-G12C complex (Homo sapiens, UniProt P01116+P62937, G12C).
T1 construct: 50 nM of His6-KRas G12C-GTP (1-169); 500 nM of tagless CypA (1-165)
As to the kind of experiment: KRAS-BRAF complex disruption through competition with CYPA-compound by TR-FRET. To be noted: biochemical BRAF-KRAS G12C-GTP disruption assay EC50, with CYPA. Here is the method:
In this example, TR-FRET was used to measure the compound-facilitated disruption of a KRAS-BRAF complex. A mixture of tagless Cyclophilin A, His6-KRAS G12C-GMP-PNP, and GST-BRAF RAS binding domain was added to a 384-well assay plate containing compounds of the invention and incubated for 3 hours. A mixture of Anti-His Eu-W1024 and anti-GST allophycocyanin was then added and the reaction was incubated for an additional 1.5 hours. TR-FRET signal was read on an EnVision microplate reader (Perkin Elmer, Ex 320 nm, Em 665/615 nm). Compounds that facilitate disruption of a KRAS_BRAF complex were identified as those eliciting a decrease in the TR-FRET ratio relative to DMSO control wells. To determine the presenter-dependence of the compound-mediated KRAS-BRAF complex disruption, Cyclophilin A was left out of the initial incubation (see Table 5). To determine G12C specificity of the compound-mediated KRAS-BRAF complex disruption, wild-type KRAS was used instead of G12C KRAS (see Table 5).
Reagents and Instrument • Tagless CYPA; 519 μM in PBS buffer, pH 7.4 • GST BRAF; 110 μM in PBS buffer, pH 7.4 • His6-KRASG12C-GMP-PNP; 50 μM in PBS buffer, pH 7.4 • His6-KRASWT-GMP-PNP; 40 μM in PBS buffer, pH 7.4 • Anti-His Eu-W1024 (LANCE® Eu-W1024; Perkin Elmer) • Anti-GST allophycocyanin (Anti-GST IgG conjugated to SureLight®-Allophycocyanin; Perkin Elmer; Product Number AD0059G) • Test compounds, 10 mM in 100% DMSO • EnVision (Perkin Elmer) • Combi MultiDrop liquid dispenser with 8-channel small volume cassette • 384-well ProxiPlate (black)
Experimental Protocol • 1. Use Mosquito to dispense 100 nL/well of compounds (varying concentration in […]) into 384-well black ProxiPlate to make assay-ready-plate (ARP). • 2. Make assay buffer containing 25 mM Hepes pH 7.3, 100 mM NaCl, 5 mM MgCl2, 0.05% BSA, and 0.002% Tween-20. • 3. Make PRE-MIX A: delivers final concentrations of 50 nM of His6-KRas G12C-GTP (1-169) and 500 nM of tagless CypA (1-165) in assay buffer. • a. For presenter dependence experiments, omit addition of tagless CypA • b. For G12C/wt specificity experiments, substitute His6-KRas WT-GTP (1-169) for His6-KRas G12C-GTP (1-169) • 4. Use MultiDrop Combi to dispense PRE-MIX A into ARP, 7 μl/well. Incubate 3 hr at room temperature. • 5. Make PRE-MIX B: delivers final concentrations of 10 nM of anti-His Eu-W1024 and 50 nM of anti-GST APC. • 6. Use MultiDrop Combi to dispense PRE-MIX B into ARP, 3 μl/well. Shake briefly on Combi and incubate 1.5 hr at room temperature. • 7. Read on EnVision (Ex: 320 nm; Em1: 615 nm; Em2: 665 nm). • 8. Data is processed using Dotmatics. Curves are fit using a 4-parameter non-linear fit to determine the EC50 value for formation of the ternary complex.

The subject of the next experiment is pERK in H358 cells. As to the kind of experiment: pERK inhibition in H358 cells. The experiment is classed as cell-based, human. The conditions noted are these: 4 hours treatment, read-out: Cellular pERK inhibition. The protocol:
H358 cells (5500 cells) derived from a human lung cancer were plated in a 96 well plate in media (100 uL, RPMI with 10% FBS). After 24 hours, cells were treated for 4 hours with compound or DMSO. Cells were washed twice with room temperature TBS (200 uL) and fixed for 20 minutes with 4% paraformaldehyde diluted with TBS (150 uL). Cells were washed four times for five minutes with 0.1% TritonX/TBS (150 uL) to permeabilize the membrane. Cells were incubated with TBS blocking buffer (100 uL) at room temperature for 60 minutes. Primary antibody (Phospho-p44/42 MAPK (Erk1/2) (Thr202/Tyr204) (D13.14.4E) XP® Rabbit mAb #4370, Cell Signaling Technology; 1:200) was added, and the cells were incubated overnight at 4 C. The cells were washed four times for five minutes with 0.1% Tween 20/TBS (150 uL). Secondary antibody (IRDye® 800CW Goat-Anti-Rabbit IgG, Li-Cor Biosciences; 1:1000) and DRAQ5™ (Invitrogen; 1:2000) was added, and the cells were incubated for 1 hour at room temperature. The cells were washed four times for five minutes with 0.1% Tween 20/TBS (150 uL) and scanned using the LICOR (700 and 800 nm).

Another experiment deals with cyclophilin A (CYPA) (Homo sapiens, UniProt P62937). As to the kind of experiment: CYPA-compound binary complex formation by SPR. To be noted: read-out: CYPA Binding Affinity. Here is the method:
In order to determine the affinity of compounds of the invention for cyclophilin A (CYPA), we employed surface plasmon resonance binding analysis using the following reagents, instruments and protocol as supplied by the instrument manufacturer.
Reagents and Instrument • 1. Instrument: Biacore S200 (GE Healthcare Life Sciences) • 2. Running buffer: 1×HBS-P+ (1×HBS supplemented with 0.05% Tween20), pH7.4, and 2% DMSO. • 3. Ligand: CypA-Avi • 4. Analyte: Serial dilution of WDB compounds from 50 μM to 0 μM, 2-fold dilution, 10 points (10 mM stock concentration). • 5. Sensor kit: Biotin CAPture Kit (BR28-9202-34, GE Healthcare Life Sciences) • 6. Regeneration buffer: 1 volume of 1 M NaOH and 3 volumes of 8 M guanidine hydrochloride (supplied with CAPture Kit, BR28-9202-34, GE Healthcare Life Sciences)
Experimental Procedure • 1. Capture of CAPreagent: 2 μl/min for 60 seconds. • 2. Immobilization of ligand CypA: Use Fc1 as the reference cell; immobilize CypA at 4 μg/ml using 5 μl/min flowrate on Fc2 (60s), Fc3 (80s) and Fc4 (80s), respectively. • 3. Binding of analytes: Inject WDB compound dilutions sequentially at 50 μl/min for association of 60 seconds. And then let it dissociates in buffer at 50 μl/min for 60 seconds. • 4. Regeneration: 2 injections of regeneration buffer at 30 μl/min for 60 seconds to regenerate the chip surface. • 5. Solvent correction: Run solvent correction at beginning and the end of the run. If run more than 6 compounds, add additional solvent correction every 6 compounds. • 6. Data fitting with built-in Biacore Evaluation Software: Steady-state fitting.
(In general: Surface plasmon resonance follows binding to a sensor surface in real time, without labels.)

Take `CC(C)C(C(=O)NC1Cc2cc(O)cc(c2)-c2ccc3c(C(C)(C)C#N)cn(c3c2)CC(CF)COC(=O)C2CCCN(N2)C1=O)N(C)C(=O)C1CN(C(=O)CCl)C1` (mixture of isomers) [Compound 34]: the EC50 (in general, the midpoint of the concentration-response curve) in experiment [1] is no more than 0.5 µM. Further, the IC50 in the experiment on pERK in H358 cells lay in the range of 1 to 10 µM. Further, at cyclophilin A (CYPA), the Kd lay in the range of 5 to 15 µM.

Turning to `CC1COC(=O)C2CCCN(N2)C(=O)C(NC(=O)C(C(C)C)N(C)C(=O)C2CN(C(=O)CCl)C2)Cc2cc(O)cc(c2)-c2ccc3c4c(n(c3c2)C1)COCC4(C)C#N` (mixture of isomers) [Compound 62], in experiment [1], the EC50 was no more than 0.5 µM. Moreover, the IC50 in the experiment on pERK in H358 cells was no more than 1 µM. The Kd on cyclophilin A (CYPA) lay in the range of 5 to 15 µM.

Turning to `CC1COC(=O)C2CCCN(N2)C(=O)C(NC(=O)C(C(C)C)N(C)C(=O)C2CN(C(=O)CCl)C2)Cc2cc(O)cc(c2)-c2ccc3c4c(n(c3c2)C1)CCC4C#N` (mixture of isomers) [Compound 74], the EC50 in experiment [1] was no more than 0.5 µM. Moreover, the IC50 in the experiment on pERK in H358 cells lay in the range of 1 to 10 µM. For the same molecule, the Kd at cyclophilin A (CYPA) was no more than 5 µM.

`CC1COC(=O)C2CCCN(N2)C(=O)C(NC(=O)C(C(C)C)N(C)C(=O)C2CN(C(=O)CCl)C2)Cc2cc(O)cc(c2)-c2ccc3c(c2)N(C1)CC3(C)C#N` (mixture of isomers) [Compound 224]: the EC50 in experiment [1] is no more than 0.5 µM. Also, in the experiment on pERK in H358 cells, the IC50 lay in the range of 1 to 10 µM. Further, the Kd on cyclophilin A (CYPA) was no more than 5 µM.

In the case of `CC1COC(=O)C2CCCN(N2)C(=O)C(NC(=O)C(C(C)C)N(C)C(=O)C2CN(C(=O)CCl)C2)Cc2cc(O)cc(c2)-c2ccc3c(c2)N(C1)CC3(C)CCC#N` (mixture of isomers) [Compound 225], the half-maximal effective concentration (EC50) in experiment [1] was no more than 0.5 µM. Also, the IC50 in the experiment with pERK in H358 cells was 1 to 10 µM. The Kd at cyclophilin A (CYPA) was no more than 5 µM.

Take `CC(C)[C@@H](C(=O)N[C@H]1Cc2cc(O)cc(c2)-c2ccc3c(C(C)(C)C#N)cn(c3c2)CC(CO)COC(=O)[C@@H]2CCCN(N2)C1=O)N(C)C(=O)C1CN(C(=O)CCl)C1` (single isomer, unassigned) [Compound 21]: the EC50 in experiment [1] is 0.5 to 5 µM. Besides, the IC50 in the experiment on pERK in H358 cells was greater than 10 µM. The Kd on cyclophilin A (CYPA) is greater than 15 µM.

In experiment [1], `CC(C)[C@@H](C(=O)N[C@H]1Cc2cc(O)cc(c2)-c2ccc3c(C(C)(C)C#N)cn(c3c2)CC(CO)COC(=O)[C@@H]2CCCN(N2)C1=O)N(C)C(=O)C1CN(C(=O)CCl)C1` (single isomer, unassigned) [Compound 22] came in with an EC50 of no more than 0.5 µM. Further, in the experiment on pERK in H358 cells, the IC50 is greater than 10 µM. The Kd on cyclophilin A (CYPA) fell in the range of 5 to 15 µM.

Turning to `COCC1COC(=O)C2CCCN(N2)C(=O)C(NC(=O)C(C(C)C)N(C)C(=O)C2CN(C(=O)CCl)C2)Cc2cc(O)cc(c2)-c2ccc3c(C(C)(C)C#N)cn(c3c2)C1` (single isomer, unassigned) [Compound 24], in experiment [1], the EC50 is no more than 0.5 µM. Also, the IC50 in the experiment with pERK in H358 cells was no more than 1 µM. In addition, at cyclophilin A (CYPA), the Kd lay in the range of 5 to 15 µM.

Consider `CC(C)C(C(=O)NC1Cc2cc(O)cc(c2)-c2ccc3c(C(C)(C)C#N)cn(c3c2)CC(F)COC(=O)C2CCCN(N2)C1=O)N(C)C(=O)C1CN(C(=O)CCl)C1` (single isomer, unassigned) [Compound 25], for which the EC50 in experiment [1] is no more than 0.5 µM. Also, the IC50 with pERK in H358 cells is greater than 10 µM. Also, the Kd on cyclophilin A (CYPA) is 5 to 15 µM.

On to `CC(C)C(C(=O)NC1Cc2cc(O)cc(c2)-c2ccc3c(C(C)(C)C#N)cn(c3c2)CC(C(F)F)COC(=O)C2CCCN(N2)C1=O)N(C)C(=O)C1CN(C(=O)CCl)C1` (single isomer, unassigned) [Compound 36], for which, in experiment [1], the concentration giving a half-maximal response (EC50) was no more than 0.5 µM. Moreover, the IC50 with pERK in H358 cells lay in the range of 1 to 10 µM. Also, at cyclophilin A (CYPA), the Kd lay within 5 to 15 µM.

With `CC(C)[C@@H](C(=O)N[C@H]1Cc2cc(O)cc(c2)-c2ccc3c(C(C)(C)C#N)cn(c3c2)CC(C(F)F)COC(=O)[C@@H]2CCCN(N2)C1=O)N(C)C(=O)C1CN(C(=O)CCl)C1` (single isomer, unassigned) [Compound 37], the EC50 in experiment [1] was no more than 0.5 µM. For the same molecule, the IC50 in the experiment on pERK in H358 cells was 1 to 10 µM. Besides, on cyclophilin A (CYPA), the Kd is 5 to 15 µM.

In turn, `CC(C)C(C(=O)NC1Cc2cc(O)cc(c2)-c2ccc3c(C(C)(C)C#N)cn(c3c2)CC(Cl)COC(=O)C2CCCN(N2)C1=O)N(C)C(=O)C1CN(C(=O)CCl)C1` (single isomer, unassigned) [Compound 41] came in with an EC50 in experiment [1] of no more than 0.5 µM. Further, the IC50 with pERK in H358 cells is 1 to 10 µM. For the same molecule, the Kd on cyclophilin A (CYPA) is no more than 5 µM.

In experiment [1], `CC1COC(=O)[C@@H]2CCCN(N2)C(=O)[C@@H](NC(=O)[C@H](C(C)C)N(C)C(=O)C2CN(C(=O)CCl)C2)Cc2cc(O)cc(c2)-c2ccc3c(S(C)(=O)=O)cn(c3c2)C1` (single isomer, unassigned) [Compound 111] showed an EC50 of no more than 0.5 µM. Besides, in the experiment on pERK in H358 cells, the IC50 was greater than 10 µM. In addition, the Kd at cyclophilin A (CYPA) lay in the range of 5 to 15 µM.

In experiment [1], `CC1COC(=O)[C@@H]2CCCN(N2)C(=O)[C@@H](NC(=O)[C@H](C(C)C)N(C)C(=O)C2CN(C(=O)CCl)C2)Cc2cc(O)cc(c2)-c2ccc3c(c2)N(CCO3)C1` (single isomer, unassigned) [Compound 183] came in with an EC50 of 0.5 to 5 µM. In addition, the IC50 in the experiment with pERK in H358 cells fell in the range of 1 to 10 µM. Besides, the Kd on cyclophilin A (CYPA) was 5 to 15 µM.

Consider `CC1COC(=O)[C@@H]2CCCN(N2)C(=O)[C@@H](NC(=O)[C@H](C(C)C)N(C)C(=O)C2CN(C(=O)CCl)C2)Cc2cc(O)cc(c2)-c2ccc3c(c2)N(CCO3)C1` (single isomer, unassigned) [Compound 184], for which, in experiment [1], the EC50 is 0.5 to 5 µM. In the experiment with pERK in H358 cells, the IC50 is greater than 10 µM. The Kd at cyclophilin A (CYPA) is no more than 5 µM.
